From ChEMBL document CHEMBL1201862, “PubChem BioAssay data set” (2004)
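Interpolation was linear, between the two tested concentrations surrounding the appropriate level; five concentrations were tested over 48 hours in 96-well plates. At the GI50, growth is halved.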 Active and inactive are the calls of the source. Cut-off read from the data, not from the text of the source: active = GI50 up to about 1.1 µM and inactive = higher.

How the values were obtained:
Experiment in all cases: DTP human tumour cell line panel, 48 h
COLO 205 = system: COLO 205
TK-10 = system: TK-10
A498 = system: A498
786-0 = system: 786-0
SF-539 = system: SF-539
SNB-19 = system: SNB-19
HT-29 = system: HT-29
OVCAR-4 = system: OVCAR-4
SK-MEL-2 = system: SK-MEL-2
SK-MEL-28 = system: SK-MEL-28
CCRF-CEM = system: CCRF-CEM
UO-31 = system: UO-31
A549 = system: A549
NCI-H23 = system: NCI-H23
DU-145 = system: DU-145
NCI/ADR-RES = system: NCI/ADR-RES
RPMI-8226 = system: RPMI-8226
MDA-MB-231 = system: MDA-MB-231
EKVX = system: EKVX
OVCAR-8 = system: OVCAR-8

| SMILES | GI50 (COLO 205) | GI50 (TK-10) | GI50 (A498) | GI50 (786-0) | GI50 (SF-539) | GI50 (SNB-19) | GI50 (HT-29) | GI50 (OVCAR-4) | GI50 (SK-MEL-2) | GI50 (SK-MEL-28) | GI50 (CCRF-CEM) | GI50 (UO-31) | GI50 (A549) | GI50 (NCI-H23) | GI50 (DU-145) | GI50 (NCI/ADR-RES) | GI50 (RPMI-8226) | GI50 (MDA-MB-231) | GI50 (EKVX) | GI50 (OVCAR-8) |
| --- | --- | --- | --- | --- | --- | --- | --- | --- | --- | --- | --- | --- | --- | --- | --- | --- | --- | --- | --- | --- |
| CC(Oc1ccccc1Cl)C(=O)NN1C(=O)CSC1c1ccc(Cl)cc1 (stereo not given) | 19.6 µM (inactive) | 25.8 µM (inactive) | 19.8 µM (inactive) | 15.2 µM (inactive) | 24.8 µM (inactive) | 21.7 µM (inactive) | 19.8 µM (inactive) | 13.7 µM (inactive) | 21.9 µM (inactive) | 23 µM (inactive) | 0.17 µM (active) | 35.1 µM (inactive) | 18.5 µM (inactive) | 19.3 µM (inactive) | 18.2 µM (inactive) | 23.9 µM (inactive) | 17.9 µM (inactive) | 17.3 µM (inactive) | 26.8 µM (inactive) | 23.4 µM (inactive) |
| CC1CC(NC2CCCCC2)=Nc2ccccc2N1Cc1ccccc1 (stereo not given) | 4.35 µM (inactive) | 12.3 µM (inactive) | 2.05 µM (inactive) | 7.71 µM (inactive) | 5.62 µM (inactive) | 11.3 µM (inactive) | 2.82 µM (inactive) | 5.78 µM (inactive) | 11.2 µM (inactive) | 4.38 µM (inactive) | 4.13 µM (inactive) | 4.66 µM (inactive) | 4.43 µM (inactive) | 7.33 µM (inactive) | 4.66 µM (inactive) | 5.85 µM (inactive) | 2.6 µM (inactive) | 4.51 µM (inactive) | 8.22 µM (inactive) | 6.59 µM (inactive) |
| O=CN1CCC23CC(O)CCC2C1Cc1cc(Oc2nnnn2-c2ccccc2)cc(O)c13 (stereo not given) | 32.9 µM (inactive) | > 100 µM (inactive) | 68.4 µM (inactive) | > 100 µM (inactive) | > 100 µM (inactive) | > 100 µM (inactive) | 59.4 µM (inactive) | 86.1 µM (inactive) | 81.3 µM (inactive) | > 100 µM (inactive) | 65.5 µM (inactive) | 85.3 µM (inactive) | > 100 µM (inactive) | > 100 µM (inactive) | > 100 µM (inactive) | > 100 µM (inactive) | 93.3 µM (inactive) | > 100 µM (inactive) | > 100 µM (inactive) | > 100 µM (inactive) |
| CCOC(=O)c1cc2c([N+](=O)[O-])c(NC(C)=O)ccc2s1 | 34.8 µM (inactive) | > 100 µM (inactive) | 29.9 µM (inactive) | 62.8 µM (inactive) | > 100 µM (inactive) | > 100 µM (inactive) | 89.7 µM (inactive) | 68.4 µM (inactive) | > 100 µM (inactive) | > 100 µM (inactive) | 53 µM (inactive) | 47.3 µM (inactive) | 50.2 µM (inactive) | 71.9 µM (inactive) | 49 µM (inactive) | 55.2 µM (inactive) | 24.4 µM (inactive) | 24.1 µM (inactive) | 12.6 µM (inactive) | > 100 µM (inactive) |
| Cc1ccc(S(=O)(=O)N/N=C2/CCC(C(C)(C)C)CC2Br)cc1 (stereo not given) | 27.2 µM (inactive) | 31 µM (inactive) | 48.6 µM (inactive) | 31.2 µM (inactive) | 21.2 µM (inactive) | 36.6 µM (inactive) | 29.4 µM (inactive) | 19.5 µM (inactive) | 13.7 µM (inactive) | 19.6 µM (inactive) | 24.5 µM (inactive) | 17.2 µM (inactive) | 34 µM (inactive) | 28 µM (inactive) | 42.6 µM (inactive) | 17.6 µM (inactive) | 28.4 µM (inactive) | 37.9 µM (inactive) | 36.6 µM (inactive) | 26.4 µM (inactive) |
